Test results reported in the supplement of paper PMC10307832.

Experiments:
Assay in all cases: relative viability (nuclei count vs DMSO), 5 days (fraction); higher = more cells survive
Quizartinib + Bortezomib = compound: CC(C)(C)c1cc(NC(=O)Nc2ccc(-c3cn4c(n3)sc3cc(OCCN5CCOCC5)ccc34)cc2)no1 [Quizartinib] + CC(C)C[C@H](NC(=O)[C@H](Cc1ccccc1)NC(=O)c1cnccn1)B(O)O [Bortezomib] (partner 0.002 µM)
How it was run: (§1)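 Relative viability equals treated-well nuclei counts divided by vehicle-well nuclei counts. Counts came from 4× images of lung cancer cell lines grown in 1536-well plates for 5 days after pin-tool dosing on the day after seeding. Dosing used one drug alone or a fixed anchor-drug dose plus five library-drug doses (not always all listed) in √10 steps, and values are medians of duplicate plates.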

YM155 + Foretinib = compound: COCC[n+]1c2c(n(Cc3cnccn3)c1C)C(=O)c1ccccc1C2=O [YM155] + COc1cc2c(Oc3ccc(NC(=O)C4(C(=O)Nc5ccc(F)cc5)CC4)cc3F)ccnc2cc1OCCCN1CCOCC1 [Foretinib] (partner 0.25 µM)
How it was run: as §1

Quizartinib + Dasatinib = compound: CC(C)(C)c1cc(NC(=O)Nc2ccc(-c3cn4c(n3)sc3cc(OCCN5CCOCC5)ccc34)cc2)no1 [Quizartinib] + Cc1nc(Nc2ncc(C(=O)Nc3c(C)cccc3Cl)s2)cc(N2CCN(CCO)CC2)n1 [Dasatinib] (partner 0.075 µM)
How it was run: as §1

YM155 + Trametinib = compound: COCC[n+]1c2c(n(Cc3cnccn3)c1C)C(=O)c1ccccc1C2=O [YM155] + CC(=O)Nc1cccc(-n2c(=O)n(C3CC3)c(=O)c3c(Nc4ccc(I)cc4F)n(C)c(=O)c(C)c32)c1 [Trametinib] (partner 0.02 µM)
How it was run: as §1

Cell Line	relative viability (Quizartinib + Bortezomib; first compound 0.001 µM)	relative viability (Quizartinib + Bortezomib; first compound 0.003162 µM)	relative viability (Quizartinib + Bortezomib; first compound 0.01 µM)	relative viability (Quizartinib + Bortezomib; first compound 0.03162 µM)	relative viability (Quizartinib + Bortezomib; first compound 0.1 µM)	relative viability (YM155 + Foretinib; first compound 0.002 µM)	relative viability (YM155 + Foretinib; first compound 0.006325 µM)	relative viability (YM155 + Foretinib; first compound 0.02 µM)	relative viability (YM155 + Foretinib; first compound 0.06325 µM)	relative viability (Quizartinib + Dasatinib; first compound 0.001 µM)	relative viability (Quizartinib + Dasatinib; first compound 0.003162 µM)	relative viability (Quizartinib + Dasatinib; first compound 0.01 µM)	relative viability (Quizartinib + Dasatinib; first compound 0.03162 µM)	relative viability (Quizartinib + Dasatinib; first compound 0.1 µM)	relative viability (YM155 + Trametinib; first compound 0.002 µM)	relative viability (YM155 + Trametinib; first compound 0.006325 µM)	relative viability (YM155 + Trametinib; first compound 0.02 µM)	relative viability (YM155 + Trametinib; first compound 0.06325 µM)
201T	1.09	1.09	1.1	1.09	1.12	1.16	1.11	1.05	1.16	0.588	0.563	0.621	0.574	0.57	0.701	0.72	0.702	0.761
A549						0.923	0.932	1.1	0.624									
A-427	0.911	0.952	1.06	1	1.01	1.08	0.984	0.976	1.05		0.718	0.706	0.657	0.663	0.739	0.796	0.757	0.526
ABC-1	0.283	0.232	0.299	0.28	0.262	1.03	0.824	0.206	0.2	0.578	0.572	0.661		0.502				
BEN	0.583	0.677	0.703	0.766	0.83	0.622	0.716	0.804	0.645	0.292	0.335	0.347	0.257	0.318	0.984	0.864	0.951	1.2
Calu-6	0.924	0.991	1.02	0.811	1.07	0.882	0.845	0.727	0.0962									
EBC-1	0.524	0.505	0.561	0.495	0.466	0.0935	0.0954	0.0823	0.089									
HCC-44	0.878	0.937	0.941	0.838	0.775										1.05	1.08	1.08	1.15
IA-LM	0.774	0.738	0.885	0.812	0.736	1.15	1.03	1.33	0.975									
LK-2						1.02	1.32	1.29	1.22	0.31		0.313	0.205	0.284	0.631	0.717	0.827	0.851
NCI-H358						0.653	0.699	0.736	0.37	0.136	0.188	0.164	0.167	0.144	0.142	0.153	0.167	0.14
NCI-H522										0.861	0.861	1.11	0.794	0.882	0.625	0.711	0.71	0.75
